Test results as given in patent US20230147257A1 (DONG-A ST CO., LTD., priority 2020, published 2023).
Like-named read-outs stand apart in the source and are kept apart here.

What was measured:
AhR [1] = molecular target: T1, AhR (Homo sapiens, UniProt P35869); assay: In vitro assay 1: XRE-luciferase reporter assay, antagonism in human cell line (HepG2); type: cell-based; details: HepG2 XRE-luciferase, cells treated with kynurenine 200 μM (no *), 6 hours; read-out: Assay 1: AhR-Luc Human Antagonism (IC50)
T1 construct: host or cells: HepG2
T1 sequence (P35869 11-848): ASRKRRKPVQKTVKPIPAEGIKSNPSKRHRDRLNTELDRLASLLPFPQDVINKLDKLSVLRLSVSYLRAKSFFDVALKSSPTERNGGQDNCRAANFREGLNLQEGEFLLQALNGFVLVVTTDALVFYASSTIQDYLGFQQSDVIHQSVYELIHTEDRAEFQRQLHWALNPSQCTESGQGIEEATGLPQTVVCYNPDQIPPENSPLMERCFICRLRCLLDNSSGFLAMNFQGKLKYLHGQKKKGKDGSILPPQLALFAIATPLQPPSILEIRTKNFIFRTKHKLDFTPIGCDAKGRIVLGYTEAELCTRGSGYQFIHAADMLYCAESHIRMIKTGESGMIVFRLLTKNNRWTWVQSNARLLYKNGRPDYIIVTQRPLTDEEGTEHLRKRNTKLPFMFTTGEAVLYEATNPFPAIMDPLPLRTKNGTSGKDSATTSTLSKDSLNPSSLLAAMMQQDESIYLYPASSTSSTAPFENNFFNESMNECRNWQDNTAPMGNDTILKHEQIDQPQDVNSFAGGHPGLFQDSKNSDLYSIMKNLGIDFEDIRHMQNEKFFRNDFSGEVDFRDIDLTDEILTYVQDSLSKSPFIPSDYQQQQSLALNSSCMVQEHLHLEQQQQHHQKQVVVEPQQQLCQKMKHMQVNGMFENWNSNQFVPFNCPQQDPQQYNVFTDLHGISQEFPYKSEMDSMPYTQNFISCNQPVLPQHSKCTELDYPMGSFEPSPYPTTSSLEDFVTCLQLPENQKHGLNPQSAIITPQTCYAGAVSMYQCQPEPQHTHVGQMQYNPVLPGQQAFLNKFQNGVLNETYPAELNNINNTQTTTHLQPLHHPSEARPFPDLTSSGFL
In short: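 HepG2 cells carrying XRE-firefly luciferase (transient or stable) plus constitutive Nano-Luc control, stimulated 6 h with kynurenine (50 or 200 μM) with or without compound. Firefly/Nano-Luc ratio normalized to kynurenine-alone (maximum) and vehicle (minimum); IC50 by four-parameter nonlinear regression.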

AhR [2] = molecular target: T1, AhR; assay: In vitro assay 3: XRE-luciferase reporter assay, agonism in human cell line (HepG2); type: cell-based; details: HepG2 XRE-Luc, tryptophan free medium, test compound alone, 6 hours
In short: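 HepG2 cells co-transfected with XRE-firefly luciferase and constitutive Nano-luciferase reporters, plated in tryptophan-free medium with 1% dialyzed FBS, then treated with compound for 6 h at 37 °C. Firefly/Nano-Luc ratio used to derive EC50 by four-parameter nonlinear regression; TCDD as positive control.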

CC(CO)n1cnc2c(-c3cccnc3)nc(-c3ccc(Cl)cc3)cc2c1=O (stereo not drawn) [Example 46, 6-(4-chlorophenyl)-3-(1-hydroxypropan-2-yl)-8-(pyridin-3-yl)pyrido[3,4-d]pyrimidin-4(3H)-one]
IC50 (AhR [1]): < 0.01 µM
EC50 (AhR [2]; read-out: Assay 3: AhR-Luc Human Agonism (EC50)): > 30000 nM
EC50 (AhR [2]; read-out: Assay 3: AhR-Luc Human Agonism (EC50, nM), class in brackets): > 10000 nM
